Test results from patent US20260022142A1, “MACROCYCLIC IMMUNOMODULATORS” (Bristol-Myers Squibb Company, priority 2022, published 2026).
Bridge positions count the residues as written; N and C are the ends. Square brackets hold non-standard residues; d marks the D form. Peptide text beside a SMILES is read from it. * marks the point of attachment. Bip = N[C@@H](Cc1ccc(-c2ccccc2)cc1)C(=O)O; Phe(3-Me) = Cc1cccc(C[C@H](N)C(=O)O)c1; 4Pal = N[C@@H](Cc1ccncc1)C(=O)O; Cha = N[C@@H](CC1CCCCC1)C(=O)O; Carboxymethyl = O=C(O)C*; Nle = CCCC[C@H](N)C(=O)O; Orn = NCCC[C@H](N)C(=O)O; Aun = NCCCCCCCCCCC(=O)O; Dab = NCC[C@H](N)C(=O)O; Dap = NC[C@H](N)C(=O)O; AEEA = NCCOCCOCC(=O)O

Target: T1, PD-1/PD-L1 interaction (PE-labeled human PD-L1-Ig binding to Jurkat cell line over-expressing human PD-1) (Homo sapiens, UniProt Q15116)
T1 construct: expressed in transfected cells; host or cells: Jurkat
T1 sequence (Q15116 25-288): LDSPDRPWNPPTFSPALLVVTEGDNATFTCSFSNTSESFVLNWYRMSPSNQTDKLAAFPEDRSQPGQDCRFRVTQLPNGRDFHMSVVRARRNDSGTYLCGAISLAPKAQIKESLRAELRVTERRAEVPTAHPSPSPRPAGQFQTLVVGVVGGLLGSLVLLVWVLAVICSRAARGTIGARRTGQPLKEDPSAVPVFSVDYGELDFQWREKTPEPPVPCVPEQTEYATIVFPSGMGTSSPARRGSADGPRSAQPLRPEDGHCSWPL
Experiment: Jurkat-PD-1 Cell Binding High-Content Screening Assay (CBA)
Format: cell-based
Details: Jurkat cell line over-expressing human PD-1; PE-labeled PD-L1-Ig 20 nM final; read-out: Jurkat hPD1-PDL1 IC50
Summary of the method: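 Binding of fluorescent PD-L1-Ig (phycoerythrin on Ig tag, 20 nM final, 1 h) measured by high-content imaging of fixed, Hoechst-counterstained Jurkat-hPD-1 cells. Compound added 2 h at 37° C beforehand, in DMEM with 10% fetal calf serum.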

Compared with Cc1cccc(C[C@@H]2NC(=O)[C@H](CC(=O)O)NC(=O)[C@H](Cc3ccc(O)cc3)NC(=O)[C@H](Cc3ccncc3)NC(=O)CSC[C@@H](C(=O)N[C@@H](CCN)C(=O)NCCOCCOCC(=O)NCCCCCCCCCCC(=O)O)NC(=O)[C@H](CCCN)NC(=O)[C@H](C(C)C)NC(=O)[C@H](CC3CCCCC3)NC(=O)[C@H](CCN)NC(=O)[C@@H](CC(C)C)NC(=O)[C@H](CCCN)NC(=O)[C@H](Cc3ccc(O)cc3)NC(=O)[C@H](Cc3ccc(-c4ccccc4)cc3)NC(=O)[C@H](C(C)C)NC2=O)c1 [Compound 2707] ({CH2CO}-[4Pal]YD[Phe(3-Me)]V[Bip]Y[Orn][dL][Dab][Cha]V[Orn]C[Dab][AEEA][Aun]-OH; thioether N-14), Cc1cccc(C[C@@H]2NC(=O)[C@H](CC(=O)O)NC(=O)[C@H](Cc3ccncc3)NC(=O)[C@H](Cc3ccc(OCC(=O)O)cc3)NC(=O)CSC[C@@H](C(=O)N[C@@H](CCN)C(=O)NCCOCCOCC(=O)NCCCCCCCCCCC(=O)O)NC(=O)[C@H](CCCN)NC(=O)[C@H](C(C)C)NC(=O)[C@H](CC3CCCCC3)NC(=O)[C@H](CCN)NC(=O)[C@@H](CC(C)C)NC(=O)[C@H](CCCN)NC(=O)[C@H](Cc3ccc(O)cc3)NC(=O)[C@H](Cc3ccc(-c4ccccc4)cc3)NC(=O)[C@H](C(C)C)NC2=O)c1 [Compound 2709] ({CH2CO}-Y(Carboxymethyl)[4Pal]D[Phe(3-Me)]V[Bip]Y[Orn][dL][Dab][Cha]V[Orn]C[Dab][AEEA][Aun]-OH; thioether N-14) is 2.5-fold lower in IC50: 20.8 nM for the first, 8.4 nM for the second.

First: Cc1cccc(C[C@@H]2NC(=O)[C@H](CC(=O)O)NC(=O)[C@H](Cc3ccc(O)cc3)NC(=O)[C@H](Cc3ccncc3)NC(=O)CSC[C@@H](C(=O)N[C@@H](CCN)C(=O)NCCCCCCCCCCC(=O)O)NC(=O)[C@H](CCCN)NC(=O)[C@H](C(C)C)NC(=O)[C@H](CC3CCCCC3)NC(=O)[C@H](CCN)NC(=O)[C@@H](CC(C)C)NC(=O)[C@H](CCCN)NC(=O)[C@H](Cc3ccc(O)cc3)NC(=O)[C@H](Cc3ccc(-c4ccccc4)cc3)NC(=O)[C@H](C(C)C)NC2=O)c1 [Compound 2708] ({CH2CO}-[4Pal]YD[Phe(3-Me)]V[Bip]Y[Orn][dL][Dab][Cha]V[Orn]C[Dab][Aun]-OH; thioether N-14)
Second: Cc1cccc(C[C@@H]2NC(=O)[C@H](CC(=O)O)NC(=O)[C@H](Cc3ccncc3)NC(=O)[C@H](Cc3ccc(OCC(=O)O)cc3)NC(=O)CSC[C@@H](C(=O)N[C@@H](CCN)C(=O)NCCCCCCCCCCC(=O)O)NC(=O)[C@H](CCCN)NC(=O)[C@H](C(C)C)NC(=O)[C@H](CC3CCCCC3)NC(=O)[C@H](CCN)NC(=O)[C@@H](CC(C)C)NC(=O)[C@H](CCCN)NC(=O)[C@H](Cc3ccc(O)cc3)NC(=O)[C@H](Cc3ccc(-c4ccccc4)cc3)NC(=O)[C@H](C(C)C)NC2=O)c1 [Compound 2710] ({CH2CO}-Y(Carboxymethyl)[4Pal]D[Phe(3-Me)]V[Bip]Y[Orn][dL][Dab][Cha]V[Orn]C[Dab][Aun]-OH; thioether N-14)
The IC50 of the first is 3.4-fold higher: 62.8 nM for the first, 18.6 nM for the second. The second is the more potent here.

First: Cc1cccc(C[C@@H]2NC(=O)[C@H](CC(=O)O)NC(=O)[C@H](Cc3ccc(OCC(=O)O)cc3)NC(=O)[C@H](CN)NC(=O)CSC[C@@H](C(=O)N[C@@H](CCN)C(=O)NCCCCCCCCCCC(=O)O)NC(=O)[C@H]([C@@H](C)O)NC(=O)[C@H](C(C)C)NC(=O)[C@H](CC3CCCCC3)NC(=O)[C@H](CCN)NC(=O)[C@@H](CC(C)C)NC(=O)[C@H](CCCN)NC(=O)[C@H](Cc3ccc(O)cc3)NC(=O)[C@H](Cc3ccc(-c4ccccc4)cc3)NC(=O)[C@H](Cc3ccc(O)cc3)NC2=O)c1 [Compound 2711] ({CH2CO}-[Dap]Y(Carboxymethyl)D[Phe(3-Me)]Y[Bip]Y[Orn][dL][Dab][Cha]VTC[Dab][Aun]-OH; thioether N-14)
Second: Cc1cccc(C[C@@H]2NC(=O)[C@H](CC(=O)O)NC(=O)[C@H](Cc3ccc(OCC(=O)O)cc3)NC(=O)[C@H](CN)NC(=O)CSC[C@@H](C(=O)N[C@@H](CCN)C(=O)NCCCCCCCCCCC(=O)O)NC(=O)[C@@H]([C@H](C)O)NC(=O)[C@H](C(C)C)NC(=O)[C@H](CC3CCCCC3)NC(=O)[C@H](CCN)NC(=O)[C@@H](CC(C)C)NC(=O)[C@H](CCCN)NC(=O)[C@H](Cc3ccc(O)cc3)NC(=O)[C@H](Cc3ccc(-c4ccccc4)cc3)NC(=O)[C@H](Cc3ccc(O)cc3)NC2=O)c1 [Compound 2716] ({CH2CO}-[Dap]Y(Carboxymethyl)D[Phe(3-Me)]Y[Bip]Y[Orn][dL][Dab][Cha]V[dT]C[Dab][Aun]-OH; thioether N-14)
The IC50 of the first is 2.3-fold lower: 10.4 nM for the first, 24.3 nM for the second.

Compared with Cc1cccc(C[C@@H]2NC(=O)[C@H](CC(=O)O)NC(=O)[C@H](Cc3ccc(OCC(=O)O)cc3)NC(=O)[C@H](CN)NC(=O)CSC[C@@H](C(=O)N[C@@H](CCN)C(=O)NCCCCCCCCCCC(=O)O)NC(=O)[C@H](CO)NC(=O)[C@H](C(C)C)NC(=O)[C@H](CC3CCCCC3)NC(=O)[C@H](CCN)NC(=O)[C@@H](CC(C)C)NC(=O)[C@H](CCCN)NC(=O)[C@H](Cc3ccc(O)cc3)NC(=O)[C@H](Cc3ccc(-c4ccccc4)cc3)NC(=O)[C@H](Cc3ccc(O)cc3)NC2=O)c1 [Compound 2712] ({CH2CO}-[Dap]Y(Carboxymethyl)D[Phe(3-Me)]Y[Bip]Y[Orn][dL][Dab][Cha]VSC[Dab][Aun]-OH; thioether N-14), Cc1cccc(C[C@@H]2NC(=O)[C@H](CC(=O)O)NC(=O)[C@H](Cc3ccc(OCC(=O)O)cc3)NC(=O)[C@H](CN)NC(=O)CSC[C@@H](C(=O)N[C@@H](CCN)C(=O)NCCCCCCCCCCC(=O)O)NC(=O)[C@H](CCC(N)=O)NC(=O)[C@H](C(C)C)NC(=O)[C@H](CC3CCCCC3)NC(=O)[C@H](CCN)NC(=O)[C@@H](CC(C)C)NC(=O)[C@H](CCCN)NC(=O)[C@H](Cc3ccc(O)cc3)NC(=O)[C@H](Cc3ccc(-c4ccccc4)cc3)NC(=O)[C@H](Cc3ccc(O)cc3)NC2=O)c1 [Compound 2713] ({CH2CO}-[Dap]Y(Carboxymethyl)D[Phe(3-Me)]Y[Bip]Y[Orn][dL][Dab][Cha]VQC[Dab][Aun]-OH; thioether N-14) is 2.7-fold lower in IC50: 20.6 nM for the first, 7.7 nM for the second. The second is the more potent here.

Going from CCCC[C@@H]1NC(=O)[C@H](C(C)C)NC(=O)[C@H](CC2CCCCC2)NC(=O)[C@H](CCN)NC(=O)[C@@H](CC(C)C)NC(=O)[C@H](CCCN)NC(=O)[C@H](Cc2ccc(O)cc2)NC(=O)[C@H](Cc2ccc(-c3ccccc3)cc2)NC(=O)[C@H](Cc2ccc(O)cc2)NC(=O)[C@H](Cc2cccc(C)c2)NC(=O)[C@H](CC(=O)O)NC(=O)[C@H](Cc2ccc(OCC(=O)O)cc2)NC(=O)[C@H](CN)NC(=O)CSC[C@@H](C(=O)N[C@@H](CCN)C(=O)NCCCCCCCCCCC(=O)O)NC1=O [Compound 2714] ({CH2CO}-[Dap]Y(Carboxymethyl)D[Phe(3-Me)]Y[Bip]Y[Orn][dL][Dab][Cha]V[Nle]C[Dab][Aun]-OH; thioether N-14) to Cc1cccc(C[C@@H]2NC(=O)[C@H](CC(=O)O)NC(=O)[C@H](Cc3ccc(OCC(=O)O)cc3)NC(=O)[C@H](CN)NC(=O)CSC[C@@H](C(=O)N[C@@H](CCN)C(=O)NCCCCCCCCCCC(=O)O)NC(=O)[C@@H](CCC(N)=O)NC(=O)[C@H](C(C)C)NC(=O)[C@H](CC3CCCCC3)NC(=O)[C@H](CCN)NC(=O)[C@@H](CC(C)C)NC(=O)[C@H](CCCN)NC(=O)[C@H](Cc3ccc(O)cc3)NC(=O)[C@H](Cc3ccc(-c4ccccc4)cc3)NC(=O)[C@H](Cc3ccc(O)cc3)NC2=O)c1 [Compound 2715] ({CH2CO}-[Dap]Y(Carboxymethyl)D[Phe(3-Me)]Y[Bip]Y[Orn][dL][Dab][Cha]V[dQ]C[Dab][Aun]-OH; thioether N-14), the IC50 falls from 406 nM to 8.9 nM (46-fold).

Going from Cc1cccc(C[C@@H]2NC(=O)[C@H](CC(=O)O)NC(=O)[C@H](Cc3ccc(OCC(=O)O)cc3)NC(=O)[C@H](CN)NC(=O)CSC[C@@H](C(=O)N[C@@H](CCN)C(=O)NCCCCCCCCCCC(=O)O)NC(=O)[C@H]([C@@H](C)O)NC(=O)[C@H](C(C)C)NC(=O)[C@H](CC3CCCCC3)NC(=O)[C@H](CCN)NC(=O)[C@@H](CC(C)C)NC(=O)[C@H](CCCN)NC(=O)[C@H](Cc3ccc(O)cc3)NC(=O)[C@H](Cc3ccc(-c4ccccc4)cc3)NC(=O)[C@H](C(C)C)NC2=O)c1 [Compound 2717] ({CH2CO}-[Dap]Y(Carboxymethyl)D[Phe(3-Me)]V[Bip]Y[Orn][dL][Dab][Cha]VTC[Dab][Aun]-OH; thioether N-14) to Cc1cccc(C[C@@H]2NC(=O)[C@H](CC(=O)O)NC(=O)[C@H](Cc3ccc(OCC(=O)O)cc3)NC(=O)[C@H](CN)NC(=O)CSC[C@@H](C(=O)N[C@@H](CCN)C(=O)NCCCCCCCCCCC(=O)O)NC(=O)[C@H](CO)NC(=O)[C@H](C(C)C)NC(=O)[C@H](CC3CCCCC3)NC(=O)[C@H](CCN)NC(=O)[C@@H](CC(C)C)NC(=O)[C@H](CCCN)NC(=O)[C@H](Cc3ccc(O)cc3)NC(=O)[C@H](Cc3ccc(-c4ccccc4)cc3)NC(=O)[C@H](C(C)C)NC2=O)c1 [Compound 2718] ({CH2CO}-[Dap]Y(Carboxymethyl)D[Phe(3-Me)]V[Bip]Y[Orn][dL][Dab][Cha]VSC[Dab][Aun]-OH; thioether N-14), the IC50 rises from 17.1 nM to 31.3 nM (1.8-fold).

Molecule Cc1cccc(C[C@@H]2NC(=O)[C@H](CC(=O)O)NC(=O)[C@H](Cc3ccc(OCC(=O)O)cc3)NC(=O)[C@H](CN)NC(=O)CSC[C@@H](C(=O)N[C@@H](CCN)C(=O)NCCCCCCCCCCC(=O)O)NC(=O)[C@H](CCC(N)=O)NC(=O)[C@H](C(C)C)NC(=O)[C@H](CC3CCCCC3)NC(=O)[C@H](CCN)NC(=O)[C@@H](CC(C)C)NC(=O)[C@H](CCCN)NC(=O)[C@H](Cc3ccc(O)cc3)NC(=O)[C@H](Cc3ccc(-c4ccccc4)cc3)NC(=O)[C@H](C(C)C)NC2=O)c1 [Compound 2719] ({CH2CO}-[Dap]Y(Carboxymethyl)D[Phe(3-Me)]V[Bip]Y[Orn][dL][Dab][Cha]VQC[Dab][Aun]-OH; thioether N-14) has an IC50 of 7.4 nM.
